Reference: EP0299533B1, “High potency sweetening agents” (THE NUTRASWEET COMPANY (a Delaware corporation), priority 1987, dated 1989)
Structures can show the parent of a compound that is named as a salt. One block for each molecule: values may come before it.

Experiments:
[1] = Taste test: compound was tasted for sweetness; type: in vivo
Description: A mixture of 5-aminomethyltetrazole (0.50 g, 5.05 mmol), sodium hydroxide (0.20 g, 5.00 mmol) and 1.5 ml of water was added to a solution of N-cyclooctyl-N′-(4-cyanophenyl)-S-methylisothiourea (1.52 g, 5.05 mmol) in 15 ml of absolute ethanol. The mixture was heated to 70° for 20 hours. After cooling, the solution was concentrated to dryness and the residue was dissolved in 20 ml of water. The resulting solution was washed with dichloromethane (3 x 20 ml) and then neutralized with a 1 N HCl solution to bring its pH to 7.5. The desired guanidine compound precipitated and was separated out by filtration to give 1.2 g (70%) of white solid. PMR (CD₃OD) δ 7.75 (d, J=8 Hz, 2H), 7.41 (d, J=8 Hz, 2H), 4.70 (s, 2H), 3.82 (m, 1H) and 1.96-1.46 (m, 14H). CMR (DMSO-D6) δ 158.3, 153.3, 144.0, 133.7, 122.0, 119.0, 105.5, 52.8, 37.8, 31.2, 26.8, 24.6 and 22.9. Analysis calculated for C₁₈H₂₄N₈ (0.6 H₂O): C, 59.52; H, 6.99; N, 30.85. Found: C, 59.38; H, 7.07; N, 31.18. The compound was tasted and was sweeet at a concentration of 10 ug/ml.
All the compounds presented in Examples 1 through 42 were tasted and were sweet.

[2] = Stability in aqueous sodium phosphate buffer at pH 3, percent remaining by HPLC; type: physicochemical; details: for half-life: phosphate buffer
Description: Compound 1 above was dissolved in an aqueous sodium phosphate buffer at a pH of 3 at a concentration of 30 µg/ml. The buffer was prepared by adding concentrated phosphoric acid to sodium phosphate […] until the pH was 3.0. This solution was then maintained at 90°C for 6 days. The percent of compound 1 remaining after 6 days was 98%. […] The half-life was estimated to be 177 days in this buffer at 90°C. The stability of the glycine derivative of this compound, i.e., 1′-N-[N-cyclooctylamino(4-cyanophenylimino)methyl]-glycine was determined in the same way as Cpd. 1 except at 70°C and 50°C instead of 90°C. […] The calculated half-life at 90°C is about 2 days.

SMILES: N#Cc1ccc(N=C(NCc2nnn[nH]2)NC2CCCCCCC2)cc1 [Example 1 HCl salt]
taste when tasted ([1]; no concentration given): sweet

remaining at 144 h ([2]; aqueous sodium phosphate buffer pH 3, 30 µg/ml, 90°C, 6 days, HPLC, read-out: percent of compound remaining after 6 days): 98%
half-life ([2]; pH 3, buffer pH 3, 90°C, estimated): 177 days
SMILES: N#Cc1ccc(NC(=NCc2nnn[nH]2)NC2CCCCCCC2)cc1 [Example 1, 1'-N-[N-Cyclooctylamino (4-Cyanophenylimino)methyl]-5-Aminomethyltetrazole]
concentration at which the compound was tasted and was sweet [1]: 10 µg/mL

SMILES: N#Cc1ccc(NC(=NCc2nnn[nH]2)NC2CC3CCC(=O)CC3C2)cc1 (stereo not drawn) [Example 42, 1′-N-[N′-2-Amino-6-oxo-cis-hydrindane (4-Cyanophenylimino)methyl]-5-Aminomethyltetrazole]
concentration at which the compound was tasted and was sweet [1]: 100 µg/mL

half-life ([2]; pH 3, buffer pH 3, 50°C): 13 days
half-life ([2]; pH 3, buffer pH 3, 70°C): 5 days
SMILES: N#Cc1ccc(NC(=NCC(=O)O)NC2CCCCCCC2)cc1 [glycine derivative, 1′-N-[N-cyclooctylamino(4-cyanophenylimino)methyl]-glycine, reference compound]
